Structures can show the parent of a compound that is named as a salt. Positions of bridges follow the written chain, without caps; N, C: chain ends. Residues, ends and D or L forms follow the SMILES beside them.
Assay: in vitro
Details: rat, gh3-tre-luc cells, AC50 (uM) modified / 1000

`CC(=O)Nc1ccc(C)cc1` [N-Acetyl-p-toluidine] and `Cc1ccc(=O)n(-c2ccccc2)c1` [Pirfenidone] cannot be ordered by CC50 at 24 h: greater than 90 µM for the first, greater than 50 µM for the second.

`O=C1CSC2(CCN(CCCN3c4ccccc4Sc4ccc(Cl)cc43)CC2)N1` [Spiclomazine hydrochloride] and `CN(C)CCCN1c2ccccc2CCc2ccc(Cl)cc21` [Clomipramine hydrochloride] are within 1.5-fold of each other in CC50 at 24 h: 6.81 µM for the first, 7.67 µM for the second.

`N#Cc1c(F)cccc1F` [2,6-Difluorobenzonitrile] and `N#CCc1ccccc1[N+](=O)[O-]` [(2-Nitrophenyl)acetonitrile] cannot be ordered by CC50 at 24 h: greater than 90 µM for the first, greater than 90 µM for the second.

First: CCOC(=O)COc1ccc2c(C)c(CCN(CC)CC)c(=O)oc2c1Cl [Cloricromen hydrochloride]
Second: CCN(CCO)CCn1c(Cc2ccccc2)nc2c1c(=O)n(C)c(=O)n2C [Bamifylline Hydrochloride]
The CC50 at 24 h of the first is lower: 31.2 µM for the first, greater than 50 µM for the second.

`CCC[N+]1(C)CCCCC1` [1-Methyl-1-propylpiperidinium bromide] and `CC(C)(C)C1CCCCC1=O` (stereo not drawn) [2-tert-Butylcyclohexanone] cannot be ordered by CC50 at 24 h: greater than 90 µM for the first, greater than 90 µM for the second.

`CCOC(=O)C=CC(=O)O` [4-Ethoxy-4-oxobut-2-enoic acid] and `CCOC(=O)CC(=O)OCC` [Diethyl propanedioate] cannot be ordered by CC50 at 24 h: greater than 90 µM for the first, greater than 90 µM for the second.

First: NCCCC[C@H](NC(=O)[C@@H]1CCCN1C(=O)[C@@H]1CSSC[C@H](NC(=O)CNC(=O)CNC(=O)CN)C(=O)N[C@@H](Cc2ccc(O)cc2)C(=O)N[C@@H](Cc2ccccc2)C(=O)N[C@@H](CCC(N)=O)C(=O)N[C@@H](CC(N)=O)C(=O)N1)C(=O)NCC(N)=O [Terlipressin] (H-GGGCYFQNCPKG-NH2; disulfide 4-9)
Second: CCCN(CCC)C(=O)C(CCC(=O)OCCCN1CCN(CCOC(=O)Cc2c(C)n(C(=O)c3ccc(Cl)cc3)c3ccc(OC)cc23)CC1)NC(=O)c1ccccc1 (stereo not drawn) [Proglumetacin]
The CC50 at 24 h of the first is higher: greater than 50 µM for the first, 10.5 µM for the second.

`CCCCCCCCCC(=O)O[C@H]1CC[C@H]2[C@@H]3CCC4=CC(=O)CC[C@@H]4[C@H]3CC[C@]12C` [Nandrolone decanoate] and `C#C[C@]1(O)CC[C@H]2[C@@H]3CCC4=CC(=O)CC[C@@H]4[C@H]3C(=C)C[C@@]21CC` [Etonogestrel] cannot be ordered by CC50 at 24 h: greater than 50 µM for the first, greater than 50 µM for the second.

`CC(C)(CO)[C@@H](O)C(=O)NCCCC(=O)O` [Calcium hopantenate] and `CNC(=N)NCCC[C@H](N)C(=O)O` [Tilarginine acetate] cannot be ordered by CC50 at 24 h: greater than 50 µM for the first, greater than 50 µM for the second.

`CN(C)CCCN(C)CCCN(C)C` [2,6,10-Trimethyl-2,6,10-triazaundecane] and `CC(C)CCCCCOC(=O)CS` [Isooctyl 2-mercaptoacetate] cannot be ordered by CC50 at 24 h: greater than 90 µM for the first, greater than 90 µM for the second.

`COc1ccc2c(c1OC)CN1CCc3cc4c(cc3[C@@H]1C2)OCO4` [Canadine] and `CCn1cc(C(=O)O)c(=O)c2cc3c(cc21)OCO3` [Oxolinic acid] cannot be ordered by CC50 at 24 h: greater than 20 µM for the first, greater than 90 µM for the second.

Compared with `CCCCCCCCCCCCCOS(=O)(=O)O` [Sodium tridecyl sulfate], `CCCCCCCCCCCCCCCC[N+](C)(C)C` [Hexadecyl trimethyl ammonium chloride] is lower in CC50 at 24 h: greater than 90 µM for the first, 12.8 µM for the second.

`C=CC(C)(CCC=C(C)C)OC(=O)c1ccccc1N` (stereo not drawn) [Linalyl anthranilate] and `CCCCC(CC)COC(=O)c1ccccc1C(=O)O` (stereo not drawn) [MEHP] cannot be ordered by CC50 at 24 h: greater than 90 µM for the first, greater than 90 µM for the second.

`CC(=O)OCC(CCn1cnc2cnc(N)nc21)COC(C)=O` [Famciclovir] and `Nc1nc(O)c2ncn(COC(CO)CO)c2n1` [Ganciclovir] cannot be ordered by CC50 at 24 h: greater than 50 µM for the first, greater than 20 µM for the second.

`C=CCOC(=O)C(=C)C` [Allyl methacrylate] and `CCOC(=O)OCC` [Diethyl carbonate] cannot be ordered by CC50 at 24 h: greater than 100 µM for the first, greater than 100 µM for the second.

Going from `O=C(O)COC(=O)Cc1ccccc1Nc1c(Cl)cccc1Cl` [Aceclofenac] to `COC(=O)C1=C(C)NC(C)=C(C(=O)O[C@H]2CCN(Cc3ccccc3)C2)[C@H]1c1cccc([N+](=O)[O-])c1` [Barnidipine hydrochloride], the CC50 at 24 h falls from greater than 20 µM to 16.3 µM.

`CC1(C)[C@H]2CC[C@]1(C)[C@H](O)C2` [[(1S)-endo]-(-)-Borneol] and `CC(=O)O[C@]1(C(C)=O)CC[C@H]2[C@@H]3C=C(Cl)C4=CC(=O)CC[C@]4(C)[C@H]3CC[C@@]21C` [Chlormadinone acetate] cannot be ordered by CC50 at 24 h: greater than 90 µM for the first, 90.1 µM for the second.

`Cc1ncc(CNC(=O)N(CCCl)N=O)c(N)n1` [Nimustine] and `Cc1ncsc1CCO` [Thiamine thiozole] cannot be ordered by CC50 at 24 h: greater than 50 µM for the first, greater than 90 µM for the second.

`O=Cc1ccc(F)cc1` [4-Fluorobenzaldehyde] and `c1ccc2cnccc2c1` [Isoquinoline] cannot be ordered by CC50 at 24 h: greater than 90 µM for the first, greater than 90 µM for the second.

`CO/N=C(\C(=O)N[C@@H]1C(=O)N2C(C(=O)O)=C(CSc3nnnn3C)CS[C@H]12)c1csc(N)n1` [Cefmenoxime hydrochloride] and `Nc1nc(=O)n([C@@H]2CS[C@H](CO)O2)cc1F` [Emtricitabine] cannot be ordered by CC50 at 24 h: greater than 50 µM for the first, greater than 50 µM for the second.

Going from `O=C1CCCC=CCCCCCCCCCC1` [5-Cyclohexadecen-1-one] to `O=C1CCCCCCCCCCOCCCCO1` [12-Oxahexadecanolide], the CC50 at 24 h rises from 74.1 µM to greater than 90 µM.

`CN(CCOc1ccc(CC2SC(=O)NC2=O)cc1)c1ccccn1` (stereo not drawn) [Rosiglitazone maleate] and `c1ccc(OCCOc2ccccc2)cc1` [1,2-Diphenoxyethane] cannot be ordered by CC50 at 24 h: greater than 90 µM for the first, greater than 90 µM for the second.

`O=c1[nH]c(=O)c2c[nH]nc2[nH]1` [Oxypurinol] and `COc1c(Cl)ccc(Cl)c1C(=O)O` [Dicamba] cannot be ordered by CC50 at 24 h: greater than 90 µM for the first, greater than 90 µM for the second.

`CCOC1O[C@H]([C@@H](COCc2ccccc2)OCc2ccccc2)[C@H](OCc2ccccc2)[C@H]1O` (stereo partly drawn) [Tribenoside] and `CCN[C@@H](C)Cc1ccccc1` [(S)-(+)-N-Ethylamphetamine hydrochloride] cannot be ordered by CC50 at 24 h: greater than 20 µM for the first, greater than 100 µM for the second.

First: COc1ccc(S(=O)(=O)N2c3ccc(Cl)cc3[C@](O)(c3ccccc3Cl)[C@@H]2C(=O)N2CCC[C@H]2C(N)=O)cc1OC [Relcovaptan]
Second: Cc1nnc2n1-c1sc(CCc3ccc(CC(C)C)cc3)cc1C(c1ccccc1Cl)=NC2C (stereo not drawn) [Israpafant]
The CC50 at 24 h of the first is higher: greater than 50 µM for the first, 13.6 µM for the second.

`CCC1(C)CC(=O)NC1=O` (stereo not drawn) [Ethosuximide] and `CCN(CC)CCO[C@H]1CC[C@@]2(C)C(=CC[C@@H]3[C@@H]2CC[C@]2(C)C(=O)CC[C@@H]32)C1` [3beta-(2-Diethylaminoethoxy)androst-5-en-17-one hydrochloride] cannot be ordered by CC50 at 24 h: greater than 50 µM for the first, greater than 50 µM for the second.

`CCCCCCCCCCCCCC(=O)OCC(COP(=O)([O-])OCC[N+](C)(C)C)OC(=O)CCCCCCCCCCCCC` (racemic) [1,2-Ditetradecanoyl-rac-glycerol-3-phosphocholine] and `CCCOC(=O)c1ccc(C(=O)OCCC)nc1` [Dipropyl 2,5-pyridinedicarboxylate] cannot be ordered by CC50 at 24 h: greater than 50 µM for the first, greater than 90 µM for the second.

`CCCCc1ccc2c(n1)[C@@H](c1ccc(OC)cc1C[C@H](C)C(=O)O)[C@H](C(=O)O)[C@H]2c1ccc2c(c1)OCO2` [MK-547] and `O=C(O)c1ccc(NC2OC[C@@H](O)[C@H](O)[C@H]2O)cc1` (stereo partly drawn) [Benaxibine] cannot be ordered by CC50 at 24 h: greater than 90 µM for the first, greater than 50 µM for the second.

`C[C@]12CC[C@@H]3c4ccc(O)cc4CC[C@H]3[C@@H]1CCC2=O` [Estrone] and `Cc1cc(=O)oc2cc(N(C)C)ccc12` [7-(Dimethylamino)-4-methylcoumarin] cannot be ordered by CC50 at 24 h: greater than 50 µM for the first, greater than 90 µM for the second.

First: CC1=C(Br)C(=O)C(Br)=C/C1=C(/c1ccccc1S(=O)(=O)O)c1cc(Br)c(O)c(Br)c1C [Bromocresol green sodium salt]
Second: C[C@@H]1O[C@@H](OC[C@H]2O[C@@H](Oc3c(-c4ccc(OCCO)c(OCCO)c4)oc4cc(OCCO)cc(O)c4c3=O)[C@H](O)[C@@H](O)[C@@H]2O)[C@H](O)[C@H](O)[C@H]1O [Troxerutin]
The CC50 at 24 h of the first is lower: 44.7 µM for the first, greater than 50 µM for the second.

`CCC(=O)O[C@@H]1CC(=O)O[C@H](C)C/C=C/C=C/[C@H](O)[C@H](C)C[C@H](CC=O)[C@H](O[C@@H]2O[C@H](C)[C@@H](O[C@H]3C[C@@](C)(O)[C@@H](OC(=O)CC)[C@H](C)O3)[C@H](N(C)C)[C@H]2O)[C@H]1OC` [Midecamycin] and `CC(C)(C)C(=O)OCOC(=O)[C@@H]1N2C(=O)[C@@H](N=CN3CCCCCC3)[C@H]2SC1(C)C` [Pivmecillinam hydrochloride] cannot be ordered by CC50 at 24 h: greater than 20 µM for the first, greater than 20 µM for the second.

`ClC=C(Cl)Cl` [Trichloroethylene] and `NC(=O)c1cccc([N+](=O)[O-])c1` [3-Nitrobenzamide] cannot be ordered by CC50 at 24 h: greater than 90 µM for the first, greater than 90 µM for the second.

Same assay, conditions: rat, gh3-tre-luc cells, AC50 (uM) modified / 1000, Tox21_110001=Tox21_110905; viability, 1 nM T3 present, 24 h

`C=C(C)[C@H]1CN[C@H](C(=O)O)[C@H]1CC(=O)O` [Kainic acid] showed a CC50 at 24 h greater than 50 µM.

Same assay, conditions: rat, gh3-tre-luc cells, AC50 (uM) modified / 1000, Tox21_110001=Tox21_112610; viability, 1 nM T3 present, 24 h

`CCOc1ccc2c3c1O[C@H]1[C@@H](O)C=C[C@H]4[C@@H](C2)N(C)CC[C@@]341` [Ethylmorphine] gave a CC50 at 24 h greater than 50 µM.

Same assay, conditions: rat, gh3-tre-luc cells, AC50 (uM) modified / 1000, Tox21_110001=Tox21_112824; viability, 1 nM T3 present, 24 h

For `COc1ccc2c3c1O[C@H]1[C@@H](O)C=C[C@H]4[C@@H](C2)NCC[C@@]341` [N-Norcodeine hydrochloride], the CC50 at 24 h was greater than 100 µM.

Same assay, conditions: rat, gh3-tre-luc cells, AC50 (uM) modified / 1000, Tox21_110001=Tox21_113138; viability, 1 nM T3 present, 24 h

For `Cc1ccc2c(c1)[C@]13CCCC[C@@H]1[C@H](C2)N(C)CC3` [Dimemorfan phosphate], the CC50 at 24 h was greater than 50 µM.

Same assay, conditions: rat, gh3-tre-luc cells, AC50 (uM) modified / 1000, Tox21_110001=Tox21_113271; viability, 1 nM T3 present, 24 h

For `CCOC(=O)NC(C)(C)Cc1ccc(Cl)cc1` [Cloforex], the CC50 at 24 h was greater than 50 µM.

Same assay, conditions: rat, gh3-tre-luc cells, AC50 (uM) modified / 1000, Tox21_110001=Tox21_201726; viability, 1 nM T3 present, 24 h

Compound `ClCCBr` [1-Chloro-2-bromoethane] has a CC50 at 24 h greater than 90 µM.

Same assay, conditions: rat, gh3-tre-luc cells, AC50 (uM) modified / 1000, Tox21_110001=Tox21_202415; viability, 1 nM T3 present, 24 h

In the case of `Oc1ccccc1-c1ccccc1` [2-Phenylphenol], the CC50 at 24 h is reported as greater than 90 µM.

Same assay, conditions: rat, gh3-tre-luc cells, AC50 (uM) modified / 1000, Tox21_110001=Tox21_301918; viability, 1 nM T3 present, 24 h

`COP(=S)(OC)Oc1cc(Cl)c(Br)cc1Cl` [Bromofos] gave a CC50 at 24 h greater than 90 µM.

Reference: publication PMC6792352, “Limited Chemical Structural Diversity Found to Modulate Thyroid Hormone Receptor in the Tox21 Chemical Library” (Environmental Health Perspectives, 2019)
